Results on 13 molecules are retold here after ChEMBL document CHEMBL1157442, “Discovery of new binding elements in DPP-4 inhibition and their applications in novel DPP-4 inhibitor design” (Bioorg Med Chem Lett, 2008).

One data set deals with Dipeptidyl peptidase 8 (Homo sapiens, UniProt Q6V1X1). As to the kind of experiment: Inhibition of DPP8.
Data set [1] can be described thus: Clearance in rat plasma at 1 mg/kg, iv and 2 mg/kg, po. The class given is ADME, organism-based.
Data set [2] in a line: Half life in rat plasma 1 mg/kg, iv and 2 mg/kg, po. The format is ADME, organism-based.
The nature of data set [3]: Cmax in rat 1 mg/kg, iv and 2 mg/kg, po. The class given is ADME, organism-based. Particulars: in vivo.
The nature of data set [4]: Oral bioavailability in rat at 2 mg/kg. The following applies: in vivo. The class given is ADME, organism-based.
Another data set concerns the target Dipeptidyl peptidase 4 (Homo sapiens, UniProt P27487). As to the kind of experiment: Inhibition of DPP4.

Sequence of Dipeptidyl peptidase 8 (Q6V1X1 whole entry): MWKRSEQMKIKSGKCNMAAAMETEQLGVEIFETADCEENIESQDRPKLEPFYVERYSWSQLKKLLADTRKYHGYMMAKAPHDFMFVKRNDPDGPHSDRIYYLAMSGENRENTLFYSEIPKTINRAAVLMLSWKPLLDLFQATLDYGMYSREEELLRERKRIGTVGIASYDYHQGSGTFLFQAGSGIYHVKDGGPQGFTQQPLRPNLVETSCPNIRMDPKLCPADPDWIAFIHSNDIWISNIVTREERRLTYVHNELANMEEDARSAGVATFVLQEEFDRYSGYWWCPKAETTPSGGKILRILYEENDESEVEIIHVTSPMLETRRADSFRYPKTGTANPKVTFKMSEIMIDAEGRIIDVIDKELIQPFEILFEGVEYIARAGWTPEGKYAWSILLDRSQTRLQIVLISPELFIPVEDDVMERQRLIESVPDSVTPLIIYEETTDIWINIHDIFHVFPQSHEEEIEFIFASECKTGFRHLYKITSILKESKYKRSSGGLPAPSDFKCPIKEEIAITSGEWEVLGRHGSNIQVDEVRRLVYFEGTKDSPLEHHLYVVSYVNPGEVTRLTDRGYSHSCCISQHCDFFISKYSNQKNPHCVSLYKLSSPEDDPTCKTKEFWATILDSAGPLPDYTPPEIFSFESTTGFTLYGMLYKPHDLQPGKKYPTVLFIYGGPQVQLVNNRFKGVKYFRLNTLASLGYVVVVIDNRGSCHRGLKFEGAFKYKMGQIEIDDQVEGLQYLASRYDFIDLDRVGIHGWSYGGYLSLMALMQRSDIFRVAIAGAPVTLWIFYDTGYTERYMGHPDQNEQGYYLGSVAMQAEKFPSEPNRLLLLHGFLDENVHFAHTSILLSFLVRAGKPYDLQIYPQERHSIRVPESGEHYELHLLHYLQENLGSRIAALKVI
Sequence of Dipeptidyl peptidase 4 (P27487 whole entry): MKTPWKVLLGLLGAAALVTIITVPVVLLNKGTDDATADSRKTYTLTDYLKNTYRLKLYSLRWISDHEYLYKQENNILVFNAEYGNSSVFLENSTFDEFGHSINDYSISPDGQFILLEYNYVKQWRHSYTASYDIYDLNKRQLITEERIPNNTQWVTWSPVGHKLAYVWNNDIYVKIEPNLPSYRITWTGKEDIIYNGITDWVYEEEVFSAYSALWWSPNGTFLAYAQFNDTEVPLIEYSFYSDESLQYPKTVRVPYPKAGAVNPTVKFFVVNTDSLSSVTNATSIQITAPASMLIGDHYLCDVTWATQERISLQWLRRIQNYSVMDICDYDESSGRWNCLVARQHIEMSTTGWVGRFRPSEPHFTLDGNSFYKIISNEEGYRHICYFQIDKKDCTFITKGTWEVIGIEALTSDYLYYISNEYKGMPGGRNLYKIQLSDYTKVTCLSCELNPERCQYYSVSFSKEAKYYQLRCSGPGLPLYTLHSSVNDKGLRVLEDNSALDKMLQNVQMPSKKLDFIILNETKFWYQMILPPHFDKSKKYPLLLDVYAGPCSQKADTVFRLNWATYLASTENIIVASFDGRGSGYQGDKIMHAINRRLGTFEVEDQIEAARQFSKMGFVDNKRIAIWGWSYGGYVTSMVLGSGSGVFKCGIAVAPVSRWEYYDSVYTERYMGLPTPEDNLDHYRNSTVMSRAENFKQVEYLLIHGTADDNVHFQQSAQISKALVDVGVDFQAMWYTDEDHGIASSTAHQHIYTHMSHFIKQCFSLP

One may read the IC50 as the concentration at which inhibition is half-maximal. Lower therefore signals higher potency. Take `C[C@H](c1nc(-c2ccc(OC(F)(F)F)cc2)no1)[C@H](N)C(=O)N1CCCC1`: the IC50 against Dipeptidyl peptidase 8 was over 100 µM. The term half-life denotes how long it takes for the measured level to halve. High values mean slow decline, low ones rapid decline. A word on the Cmax: it is the peak of the concentration-time curve. For the molecule `NC(=O)c1cccc(-c2ccc([C@H](N)Cc3cc(F)ccc3F)cc2)c1`, at Dipeptidyl peptidase 8, the IC50 is over 100 µM. This molecule also came in with a clearance in data set [1] of 13 mL/min/kg. This molecule showed a half-life in data set [2] of 3.8 h. This molecule came in with a Cmax in data set [3] of 2100 nM. Also, the bioavailability in data set [4] stood at 130%. In turn, `C[C@@H]1C(=O)NCCCN1C(=O)C[C@H](N)Cc1ccccc1F` registered an IC50 on Dipeptidyl peptidase 4 of 0.04 µM. Consider `N[C@H](Cc1cc(F)ccc1F)c1ccc(-c2ccncc2Cl)cc1`, for which the IC50 at Dipeptidyl peptidase 4 is 0.107 µM; against Dipeptidyl peptidase 8, over 100 µM. The like results for `C[C@H](c1nc(-c2ccc(Cl)cc2Cl)no1)[C@H](N)C(=O)N1CC[C@H](F)C1` were, in that order, 0.615 µM and over 100 µM.

As to `C[C@H](c1nc(-c2ccc(S(C)(=O)=O)cc2Cl)no1)[C@H](N)C(=O)N1CC[C@H](F)C1`, on Dipeptidyl peptidase 8, the IC50 was over 100 µM. The molecule `N[C@H](Cc1cc(F)ccc1F)c1ccc(Br)cc1` displayed an IC50 against Dipeptidyl peptidase 8 of over 100 µM.

In the case of `Cc1noc(C(=O)C[C@H](N)Cc2cc(F)ccc2F)n1`, the IC50 at Dipeptidyl peptidase 8 was over 100 µM. In the case of `C[C@@H](c1ccc(-c2ccncc2Cl)cc1)[C@H](N)C(=O)N1CC[C@H](F)C1`, the half-maximal inhibitory concentration (IC50) was 0.071 µM against Dipeptidyl peptidase 4 and over 100 µM at Dipeptidyl peptidase 8. The like results for `C[C@@H](c1nc(-c2ccc(Cl)cc2Cl)no1)[C@H](N)Cc1cc(F)c(F)cc1F` were, in that order, 0.6 µM and over 100 µM.

For `C[C@@H](c1nc(-c2ccc(OC(F)(F)F)cc2)no1)[C@H](N)Cc1cc(F)ccc1F`, the IC50 was 4.4 µM on Dipeptidyl peptidase 4 and over 100 µM at Dipeptidyl peptidase 8. The like results for `C[C@@H](c1nc(-c2ccc(S(C)(=O)=O)cc2Cl)no1)[C@H](N)Cc1cc(F)c(F)cc1F` were, in that order, 0.046 µM and over 100 µM.

At Dipeptidyl peptidase 4, `N[C@@H](CC(=O)N1CCC[C@H]1CO)C(=O)N1CC[C@H](F)C1` returned an IC50 of 9.2 µM.
